Assay results reported in ChEMBL document CHEMBL5715937, “In vitro activity of Bcr-Abl inhibitors AMN107 and BMS-354825 against clinically relevant imatinib-resistant Abl kinase domain mutants” (Cancer Res, 2005).
Calls of active or inactive are those of the source. No cut-off for these calls is given here.

Assays:
[1] = Inhibition of BCR-ABL M244V mutant (unknown origin) expressed in mouse BaF3 cells assessed as inhibition of cell growth incubated for 72 hrs by […] CellTiter96 viability analysis; settings: BaF3, time 72 hrs, condition chronic myelogenous leukemia
[2] = Inhibition of BCR-ABL E255K mutant (unknown origin) expressed in mouse BaF3 cells assessed as inhibition of cell growth incubated for 72 hrs by […] CellTiter96 viability analysis
[3] = Inhibition of BCR-ABL F317L mutant (unknown origin) expressed in mouse BaF3 cells assessed as inhibition of cell growth incubated for 72 hrs by […] CellTiter96 viability analysis
BaF3 [4] = assay: Induction of apoptosis in mouse BaF3 cells expressing Bcr-Abl E255V mutant at 30 to 300 nM incubated for 72 hrs by Annexin V-phycoerythrin and 7-amino-actinomycin D staining based PCA instrument analysis; assay type: functional, cell-based; settings: dose 30-300 nM
BaF3 [5] = assay: Induction of apoptosis in mouse BaF3 cells expressing Bcr-Abl V379l mutant assessed as increase in apoptotic cells at 1500 nM incubated for 72 hrs by Annexin V-phycoerythrin and 7-amino-actinomycin D staining based PCA instrument analysis relative to control; assay type: functional
[6] = BaF3, time 72 hrs, condition chronic myelogenous leukemia

`Cc1cn(-c2cc(NC(=O)c3ccc(C)c(Nc4nccc(-c5cccnc5)n4)c3)cc(C(F)(F)F)c2)cn1` [NILOTINIB] gave an IC90 [1] of 56 nM, an IC50 ([2]; BaF3, 72 h) of 200 nM and an IC90 [2, 6] of 415 nM. The IC50 ([3]; BaF3, 72 h) was 50 nM, the IC90 [3, 6] was 116 nM and the Activity (BaF3 [4]) was “Active”. For the same compound, the Activity (BaF3 [5]) was >90%.
